Test results: US8735406B2, “8-oxodihydropurine derivative” (Dainippon Sumitomo Pharma Co., Ltd., priority 2009, dated 2014)
Where two headings read alike, the source gives them in different places.

Target: T1, FAAH (Rattus norvegicus, UniProt P97612)
T1 construct: Preparation of Rat Brain Membranes Preparations (FAAH Enzyme Solution); from tissue; host or cells: rat cerebrum (brain membrane preparation)
T1 sequence (P97612 1-579): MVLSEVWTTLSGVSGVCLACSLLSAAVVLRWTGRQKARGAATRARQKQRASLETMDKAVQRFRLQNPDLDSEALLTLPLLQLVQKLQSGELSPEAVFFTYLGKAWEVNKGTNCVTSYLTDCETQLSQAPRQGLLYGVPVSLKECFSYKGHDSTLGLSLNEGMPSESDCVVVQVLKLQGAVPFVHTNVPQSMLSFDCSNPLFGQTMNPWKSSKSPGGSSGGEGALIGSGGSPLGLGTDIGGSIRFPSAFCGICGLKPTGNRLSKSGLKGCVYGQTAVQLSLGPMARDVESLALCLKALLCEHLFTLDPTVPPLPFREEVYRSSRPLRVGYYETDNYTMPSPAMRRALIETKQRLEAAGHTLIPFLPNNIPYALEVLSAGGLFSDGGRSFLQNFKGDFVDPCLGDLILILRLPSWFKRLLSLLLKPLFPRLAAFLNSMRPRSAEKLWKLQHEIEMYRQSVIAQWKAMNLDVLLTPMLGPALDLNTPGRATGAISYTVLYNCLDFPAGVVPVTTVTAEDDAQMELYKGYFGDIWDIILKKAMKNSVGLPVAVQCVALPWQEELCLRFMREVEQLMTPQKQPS
Test: Determination of FAAH inhibitory activity in rat (rat brain membrane preparations, [3H]-anandamide hydrolysis)
Format: biochemical
Details: for inhibition at 0.1 µM: read-out: FAAH Inhibition, Inhibition Rate at 100 nM; for IC50: test substance 0.1 nM to 1 μM, read-out: FAAH Inhibition IC50
Method: Determination of FAAH Inhibitory Activity in Rat
The preparation of rat brain membranes preparations and the determination of FAAH inhibitory activity were carried out according to the Jonsson et al. method [Br. J. Pharmacol., 133, 1263 (2001)].
(1) Preparation of Rat Brain Membranes Preparations (FAAH Enzyme Solution)
The cerebrum was extracted from rats and was freeze-stored at −80° C. To the frozen cerebrum was added 4° C. enzyme homogenization buffer (20 mM HEPES-buffer pH 7.0, 1 mM MgCl2) and the mixture was homogenized using a homogenizer in ice and the homogenates were centrifuged (36,000×g for 20 minutes). After repeating operations of homogenization and centrifugation, the tissue pellets were re-suspended with 4° C. enzyme homogenization buffer. The re-suspensions were incubated at 37° C. for 15 minutes and were centrifuged (36,000×g for 20 minutes), and the resulting tissue membranes were then re-suspended with enzyme solution preparation buffer (50 mM Tris-HCl buffer pH 7.4, 1 mM EDTA, 3 mM MgCl2). The protein concentration in the resulting membrane preparations were determined according to a colorimetry method (BCA Protein Assay: Pierce Inc.) and the preparations were freeze-stored at −80° C. until used for assay.
(2) Screening of Substances for Inhibiting FAAH Activity
To the above membrane preparations (final concentration 100 μg/mL) were added a solution of test substances in DMSO (final concentration in DMSO 1%) and an assay buffer (for final preparation; 22 mM Tris-HCl (pH 7.6), 1.4 mM EDTA, 1.5% BSA, 0.6 mM MgCl2) and the resulting mixtures were preincubated at 37° C. for 10 minutes. Thereto was added a substrate solution (for final preparation; 2 nM [^3H]-Anandamide (American Radiolabeled Chemicals Inc.)+2 μM Anandamide (Sigma-Aldrich Co.)) (final assay volume of 200 μL) and the resulting mixtures were incubated at 37° C. for 10 minutes. Here in control experiment, DMSO was added instead of the solution of test substance in DMSO. Also in blank experiment, DMSO was added instead of the solution of test substance in DMSO and an enzyme solution preparation buffer was also added instead of the membrane preparations. After the incubation, thereto was added a 400 μL ice-cooled solution of chloroform and methanol (1:1 ratio by volume) and the resulting mixtures were stirred. An ethanolamine (ethanolamine-1-[^3H]) as a decomposed product was separated into an upper layer (water/methanol layer) by centrifugation (1,000×g for 10 minutes). The upper layer 200 μL was transferred into 96 well Deepwell Luma Plate-96 (PerkinElmer Inc.) and the radioactivity was measured by microplate scintillation counter (TopCount NXT™: […].). The substances showing a lower measured value compared to those of control were selected as the compound having a FAAH inhibitory activity.
(3) Determination of IC50 Value
The test substances were prepared such that the final concentration of the compounds is within the range of 0.1 nM to 1 μM and were then examined on the effect on FAAH activity according to the above-mentioned protocol.

[1] = rat brain membrane preparations, 100 nM test substance
[2] = rat brain membrane preparations

| inhibition at 0.1 µM [1] [%] | IC50 [2] [nM] | inhibition at 1 µM (rat brain membrane preparations, 1000 nM test substance (stated in the cell), read-out: FAAH Inhibition, Inhibition Rate (1000 nM)) [%] | SMILES | inhibition at 0.1 µM [%] |
| --- | --- | --- | --- | --- |
| 100 | 6 | – | Cn1c(=O)n(C(=O)N2CCCC2)c2cnc(/C=C/c3ccccc3)nc21 [Example 1, 9-methyl-2-[(E)-2-phenylethenyl]-7-(pyrrolidin-1-ylcarbonyl)-7,9-dihydro-8H-purine-8-one] | – |
| 99 | 10 | – | CCN(C)C(=O)n1c(=O)n(C)c2nc(-c3ccccc3)ncc21 [Example 2, N-ethyl-N,9-dimethyl-8-oxo-2-phenyl-8,9-dihydro-7H-purine-7-carboxamide] | – |
| 99 | 10 | – | COc1ccc(/C=C/c2ncc3c(n2)n(C)c(=O)n3C(=O)N2CCCC2)cc1 [Example 4, 2-[(E)-2-(4-Methoxyphenyl)ethenyl]-9-methyl-7-(pyrrolidin-1-ylcarbonyl)-7,9-dihydro-8H-purine-8-one] | – |
| 98 | 15 | – | Cn1c(=O)n(C(=O)N2CCCC2)c2cnc(/C=C/c3ccc(F)cc3)nc21 [Example 5, 2-[(E)-2-(4-Fluorophenyl)ethenyl]-9-methyl-7-(pyrrolidin-1-ylcarbonyl)-7,9-dihydro-8H-purine-8-one] | – |
| 87 | 57 | – | Cn1c(=O)n(C(=O)N2CCCC2)c2cnc(/C=C/c3ccc(Cl)cc3)nc21 [Example 8, 2-[(E)-2-(4-Chlorophenyl)ethenyl]-9-methyl-7-(pyrrolidin-1-ylcarbonyl)-7,9-dihydro-8H-purine-8-one] | – |
| 92 | 47 | – | Cc1ccc(/C=C/c2ncc3c(n2)n(C)c(=O)n3C(=O)N2CCCC2)cc1 [Example 9, 9-Methyl-2-[(E)-2-(4-methylphenyl)ethenyl]-7-(pyrrolidin-1-ylcarbonyl)-7,9-dihydro-8H-purine-8-one] | – |
| 79 | 66 | – | Cn1c(=O)n(C(=O)N2CCCC2)c2cnc(CCc3ccccc3)nc21 [Example 11, 9-Methyl-2-(2-phenylethyl)-7-(pyrrolidin-1-ylcarbonyl)-7,9-dihydro-8H-purine-8-one] | – |
| 93 | 46 | – | COc1ccc(CCc2ncc3c(n2)n(C)c(=O)n3C(=O)N2CCCC2)cc1 [Example 12, 2-[2-(4-Methoxyphenyl)ethyl]-9-methyl-7-(pyrrolidin-1-ylcarbonyl)-7,9-dihydro-8H-purine-8-one] | – |
| 100 | 7 | – | Cn1c(=O)n(C(=O)N2CCCC2)c2cnc(-c3ccccc3)nc21 [Example 16, 9-Methyl-2-phenyl-7-(pyrrolidin-1-ylcarbonyl)-7,9-dihydro-8H-purine-8-one] | – |
| 101 | 8 | – | Cn1c(=O)n(C(=O)N2CCCC2)c2cnc(-c3cccc(Cl)c3)nc21 [Example 17] | – |
| 99 | 7 | – | Cn1c(=O)n(C(=O)N2CCCC2)c2cnc(-c3ccc(Cl)cc3)nc21 [Example 18] | – |
| 99 | 9 | – | Cn1c(=O)n(C(=O)N2CCCC2)c2cnc(Cc3cccc(Cl)c3)nc21 [Example 19, 2-(3-Chlorobenzyl)-9-methyl-7-(pyrrolidin-1-ylcarbonyl)-7,9-dihydro-8H-purine-8-one] | – |
| 95 | 40 | – | Cn1c(=O)n(C(=O)N2CCCC2)c2cnc(Cc3ccc(Cl)cc3)nc21 [Example 20, 2-(4-Chlorobenzyl)-9-methyl-7-(pyrrolidin-1-ylcarbonyl)-7,9-dihydro-8H-purine-8-one] | – |
| 57 | 84 | – | Cn1c(=O)n(C(=O)N2CCCC2)c2cnc(CCCc3ccccc3)nc21 [Example 21] | – |
| 102 | 12 | – | CN(C)C(=O)n1c(=O)n(C)c2nc(-c3ccccc3)ncc21 [Example 22] | – |
| 102 | 5 | – | Cn1c(=O)n(C(=O)N2CCC2)c2cnc(-c3ccccc3)nc21 [Example 23, 7-(Azetidin-1-ylcarbonyl)-9-methyl-2-phenyl-7,9-dihydro-8H-purine-8-one] | – |
| 97 | 29 | – | Cn1c(=O)n(C(=O)N2CCCCC2)c2cnc(-c3ccccc3)nc21 [Example 24, 9-Methyl-2-phenyl-7-(piperidin-1-ylcarbonyl)-7,9-dihydro-8H-purine-8-one] | – |
| 38 | > 100 | – | CN1CCN(C(=O)n2c(=O)n(C)c3nc(-c4ccccc4)ncc32)CC1 [Example 26] | – |
| 76 | 63 | – | CN(C(=O)n1c(=O)n(C)c2nc(-c3ccccc3)ncc21)c1ccccc1 [Example 27] | – |
| 67 | 75 | – | COC[C@H]1CCCN1C(=O)n1c(=O)n(C)c2nc(-c3ccccc3)ncc21 [Example 29] | – |
| 91 | 47 | – | Cn1c(=O)n(C(=O)N2CCC(c3ccccc3)CC2)c2cnc(-c3ccccc3)nc21 [Example 33, 9-Methyl-2-phenyl-7-[(4-phenylpiperidin-1-yl)carbonyl]-7,9-dihydro-8H-purine-8-one] | – |
| 101 | 23 | – | CN(Cc1ccccc1)C(=O)n1c(=O)n(C)c2nc(-c3ccccc3)ncc21 [Example 34, N-Benzyl-N,9-dimethyl-8-oxo-2-phenyl-8,9-dihydro-7H-purine-7-carboxamide] | – |
| 98 | 7 | – | CN(CCCCc1ccccc1)C(=O)n1c(=O)n(C)c2nc(-c3ccccc3)ncc21 [Example 36, N,9-Dimethyl-8-oxo-2-phenyl-N-(4-phenylbutyl)-8,9-dihydro-7H-purine-7-carboxamide] | – |
| 91 | 46 | – | CCOC(=O)CN(C)C(=O)n1c(=O)n(C)c2nc(-c3ccccc3)ncc21 [Example 37, Ethyl N-methyl-N-[(9-methyl-8-oxo-2-phenyl-8,9-dihydro-7H-purin-7-yl)carbonyl]glycinate] | – |
| 73 | 76 | – | COC(=O)CN(C)C(=O)n1c(=O)n(C)c2nc(-c3ccccc3)ncc21 [Example 38] | – |
| 98 | 43 | – | COCCN(C)C(=O)n1c(=O)n(C)c2nc(-c3ccccc3)ncc21 [Example 39, N-(2-Methoxyethyl)-N,9-dimethyl-8-oxo-2-phenyl-8,9-dihydro-7H-purine-7-carboxamide] | – |
| 20 | > 100 | – | CCN(CC)C(=O)n1c(=O)n(C)c2nc(-c3ccccc3)ncc21 [Example 40] | – |
| 33 | > 100 | – | Cn1c(=O)n(C(=O)N2CCCCCC2)c2cnc(-c3ccccc3)nc21 [Example 41] | – |
| 20 | > 100 | – | CN(C(=O)n1c(=O)n(C)c2nc(-c3ccccc3)ncc21)C1CCCCC1 [Example 43] | – |
| – | > 100 | 30 | Cn1c(=O)n(C(=O)N2CCCC2Cc2ccccc2)c2cnc(-c3ccccc3)nc21 (centres unmarked) [Example 44] | – |

| SMILES | inhibition at 0.1 µM [1] [%] | IC50 [2] [nM] | inhibition at 1 µM (rat brain membrane preparations, 1000 nM test substance (stated in the cell), read-out: FAAH Inhibition, Inhibition Rate (1000 nM)) [%] | inhibition at 0.1 µM [%] |
| --- | --- | --- | --- | --- |
| CN(CCCc1ccccc1)C(=O)n1c(=O)n(C)c2nc(-c3ccccc3)ncc21 [Example 35, N,9-Dimethyl-8-oxo-2-phenyl-N-(3-phenylpropyl)-8,9-dihydro-7H-purine-7-carboxamide] | – | 8 | – | 100 |
